What was measured:
Assay type in all cases: cell-based
mouse neutrophils = assay: Ca2+ mobilization in mouse neutrophils; settings: Neutrophil, read-out: EC50, Ca2+ mobilization, Mouse PMN
human neutrophils = assay: Ca2+ mobilization in human neutrophils
FPR2 = biological target: T1, FPR2 (Homo sapiens, UniProt P25090); assay: Ca2+ mobilization in FPR2-transfected HL-60 cells
T1 sequence (P25090 1-351): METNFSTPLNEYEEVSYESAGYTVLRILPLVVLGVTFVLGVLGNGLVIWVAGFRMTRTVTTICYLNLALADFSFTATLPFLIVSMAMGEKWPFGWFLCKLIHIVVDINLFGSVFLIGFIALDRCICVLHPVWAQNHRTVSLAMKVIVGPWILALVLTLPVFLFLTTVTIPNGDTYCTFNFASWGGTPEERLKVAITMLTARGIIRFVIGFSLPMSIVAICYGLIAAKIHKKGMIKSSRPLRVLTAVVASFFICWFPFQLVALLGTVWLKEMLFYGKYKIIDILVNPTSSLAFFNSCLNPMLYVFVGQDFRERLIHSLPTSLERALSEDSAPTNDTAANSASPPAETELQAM

FPR1 = biological target: T2, FPR1 (Homo sapiens, UniProt P21462); assay: Ca2+ mobilization in FPR1-transfected HL-60 cells
T2 sequence (P21462 1-350): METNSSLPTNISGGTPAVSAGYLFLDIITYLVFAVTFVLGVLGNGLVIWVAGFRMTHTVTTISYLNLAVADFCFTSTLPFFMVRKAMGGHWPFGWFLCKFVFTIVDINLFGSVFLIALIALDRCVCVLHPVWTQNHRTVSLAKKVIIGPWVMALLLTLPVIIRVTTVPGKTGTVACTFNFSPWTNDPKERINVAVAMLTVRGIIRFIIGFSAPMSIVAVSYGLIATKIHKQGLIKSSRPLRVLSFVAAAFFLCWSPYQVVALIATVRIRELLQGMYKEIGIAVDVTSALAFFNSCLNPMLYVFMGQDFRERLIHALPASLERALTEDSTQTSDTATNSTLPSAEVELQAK

## COc1ccc(NC(=O)N[C@H](Cc2c[nH]c3ccccc23)C(=O)NCC2(c3ccc(OC)cn3)CCCCC2)cc1 [(R)-9a, (R)-3-(1H-Indol-3-yl)-2-[3-(4-methoxyphenyl)ureido]-N-[[1-(5-methoxy-2-pyridinyl)cyclohexyl]methyl]propanamide]
Mouse neutrophils
  EC50: 4900 ± 1400 nM

## COc1ccc(NC(=O)N[C@H](Cc2c[nH]c3ccccc23)C(=O)NCC2(c3ccnc(F)c3)CCCCC2)cc1 [(R)-9b]
Human neutrophils
  Ca2+ mobilization in human neutrophils (in words): not able to induce Ca^2+ mobilization
Mouse neutrophils
  EC50: 2300 ± 730 nM
FPR2
  activation of FPR2 in FPR2-HL60 cells and in human neutrophils (in words): inactive

## COc1ccc(NC(=O)N[C@H](Cc2c[nH]c3ccccc23)C(=O)NCC2(c3ccccc3)CCCCC2)cc1 [(R)-9c, (R)-3-(1H-Indol-3-yl)-2-[3-(4-methoxyphenyl)ureido]-N-[(1-phenylcyclohexyl)methyl]propanamide]
Human neutrophils
  Ca2+ mobilization in human neutrophils (in words): only in the presence of probenecid
FPR1
  Ca2+ mobilization in FPR1-HL60 cells (in words): unable to stimulate Ca^2+ mobilization
Mouse neutrophils
  EC50: 3800 ± 1300 nM

## COc1ccc(NC(=O)N[C@H](Cc2c[nH]c3ccccc23)C(=O)NCC2(c3cccnc3)CCCCC2)cc1 [(R)-9d, (R)-3-(1H-Indol-3-yl)-2-[3-(4-methoxyphenyl)ureido]-N-[[1-(3-pyridinyl)cyclohexyl]methyl]propanamide]
Human neutrophils
  Ca2+ mobilization in human neutrophils (in words): not able to induce Ca^2+ mobilization
Mouse neutrophils
  EC50: 2100 ± 580 nM

## COc1ccc(NC(=O)N[C@H](Cc2c[nH]c3ccccc23)C(=O)NCC2(c3ccccn3)CCCCC2)cc1 [(R)-9e, (R)-3-(1H-Indol-3-yl)-2-[3-(4-methoxyphenyl)ureido]-N-[[1-(2-pyridinyl)cyclohexyl]methyl]propanamide]
Mouse neutrophils
  EC50: 1000 ± 270 nM

## COc1ccc(NC(=O)N[C@H](Cc2c[nH]c3ccccc23)C(=O)NCC2(c3ccc(F)cc3)CCCCC2)cc1 [(R)-9f, (R)-N-[[1-(4-Fluorophenyl)cyclohexyl]methyl]-3-(1H-indol-3-yl)-2-[3-(4-methoxyphenyl)ureido]propanamide]
Human neutrophils
  Ca2+ mobilization in human neutrophils (in words): not able to induce Ca^2+ mobilization
Mouse neutrophils
  EC50: 2500 ± 420 nM
FPR2
  activation of FPR2 in FPR2-HL60 cells and in human neutrophils (in words): inactive

## COc1ccc(NC(=O)N[C@@H](Cc2c[nH]c3ccccc23)C(=O)NCC2(c3ccc(OC)cn3)CCCCC2)cc1 [(S)-9a, (S )-3-(1H-indol-3-yl)-2-[3-(4-methoxyphenyl)ureido]-N -[[1-(5-methoxy-2-pyridinyl)cyclohexyl]methyl]propanamide]
Human neutrophils; (S)-9a vs (R)-9a
  difference in potency between enantiomers in activation of human neutrophils: > 14 fold
Human neutrophils; without probenecid, normalized to 5 nM fMLF = 100%
  Efficacy, Ca2+ mobilization, Human PMN (w/o probenecid): 100%
FPR1
  Ca2+ mobilization in FPR1-HL60 cells (in words): stimulated Ca^2+ mobilization
Mouse neutrophils
  EC50: 240 ± 70 nM

## COc1ccc(NC(=O)N[C@@H](Cc2c[nH]c3ccccc23)C(=O)NCC2(c3ccnc(F)c3)CCCCC2)cc1 [(S)-9b]
FPR1
  Ca2+ mobilization in FPR1-HL60 cells (in words): unable to stimulate Ca^2+ mobilization
Mouse neutrophils
  EC50: 1700 ± 440 nM
FPR2
  activation of FPR2 in FPR2-HL60 cells and in human neutrophils (in words): active

## COc1ccc(NC(=O)N[C@@H](Cc2c[nH]c3ccccc23)C(=O)NCC2(c3ccccc3)CCCCC2)cc1 [(S)-9c, (S)-3-(1H-Indol-3-yl)-2-[3-(4-methoxyphenyl)ureido]-N-[(1-phenylcyclohexyl)methyl]propanamide]
Human neutrophils
  Ca2+ mobilization in human neutrophils (in words): not able to induce Ca^2+ mobilization
Mouse neutrophils
  EC50: 2500 ± 610 nM

## COc1ccc(NC(=O)N[C@@H](Cc2c[nH]c3ccccc23)C(=O)NCC2(c3cccnc3)CCCCC2)cc1 [(S)-9d, (S)-3-(1H-Indol-3-yl)-2-[3-(4-methoxyphenyl)ureido]-N-[[1-(3-pyridinyl)cyclohexyl]methyl]propanamide]
FPR1
  Ca2+ mobilization in FPR1-HL60 cells (in words): unable to stimulate Ca^2+ mobilization
Mouse neutrophils
  EC50: 3900 ± 1500 nM
FPR2
  activation of FPR2 in FPR2-HL60 cells and in human neutrophils (in words): able to activate FPR2

## COc1ccc(NC(=O)N[C@@H](Cc2c[nH]c3ccccc23)C(=O)NCC2(c3ccccn3)CCCCC2)cc1 [(S)-9e, (S)-3-(1H-Indol-3-yl)-2-[3-(4-methoxyphenyl)ureido]-N-[[1-(2-pyridinyl)cyclohexyl]methyl]propanamide]
FPR1
  Ca2+ mobilization in FPR1-HL60 cells (in words): stimulated Ca^2+ mobilization
Mouse neutrophils
  EC50: 2800 ± 640 nM

## COc1ccc(NC(=O)N[C@@H](Cc2c[nH]c3ccccc23)C(=O)NCC2(c3ccc(F)cc3)CCCCC2)cc1 [(S)-9f, (S)-N-[[1-(4-Fluorophenyl)cyclohexyl]methyl]-3-(1H-indol-3-yl)-2-[3-(4-methoxyphenyl)ureido]propanamide]
Human neutrophils
  Ca2+ mobilization in human neutrophils (in words): only in the presence of probenecid
FPR1
  Ca2+ mobilization in FPR1-HL60 cells (in words): unable to stimulate Ca^2+ mobilization
Mouse neutrophils
  EC50: 2300 ± 350 nM
FPR2
  activation of FPR2 in FPR2-HL60 cells and in human neutrophils (in words): active
